Like-named read-outs stand apart in the source and are kept apart here.
Tested on: edema in the hind paws (carrageenan)
Experiment: carrageenan-induced hind paw edema, oral administration
Assay type: in vivo, male Wistar rats
Conditions: Rattus norvegicus; for inhibition in vivo at 5 mg/kg: 5 mg/kg orally; for inhibition in vivo at 8 mg/kg: 8 mg/kg orally
Description: That is, male Wistar rats weighing about 100 g, one group consisting of 5 to 7 animals, were given orally the compounds according to the present invention and then edema was induced in the hind paws by subcutaneous injections of 0.1 ml of 1% carrageenan 1 hour after the administration of the test compounds, and the volumes of the hind paws were measured by a volume differential meter.

[1] = 1 hr, read-out: Inhibition (%) 1 hr
[2] = 2 hr, read-out: Inhibition (%) 2 hr
[3] = 3 hr, read-out: Inhibition (%) 3 hr
[4] = 4 hr, read-out: Inhibition (%) 4 hr
[5] = 5 hr, read-out: Inhibition (%) 5 hr
[6] = 6 hr, read-out: Inhibition (%) 6 hr
[7] = 10 mg/kg orally, 1 hr, read-out: Inhibition (%) 1 hr
[8] = 10 mg/kg orally, 2 hr, read-out: Inhibition (%) 2 hr
[9] = 10 mg/kg orally, 3 hr, read-out: Inhibition (%) 3 hr
[10] = 10 mg/kg orally, 4 hr, read-out: Inhibition (%) 4 hr
[11] = 10 mg/kg orally, 5 hr, read-out: Inhibition (%) 5 hr
[12] = 10 mg/kg orally, 6 hr, read-out: Inhibition (%) 6 hr
[13] = 1 h, read-out: Inhibition (%) 1 hr
[14] = 2 h, read-out: Inhibition (%) 2 hr
[15] = 3 h, read-out: Inhibition (%) 3 hr
[16] = 4 h, read-out: Inhibition (%) 4 hr
[17] = 5 h, read-out: Inhibition (%) 5 hr
[18] = 6 h, read-out: Inhibition (%) 6 hr

O=C(O)c1ccccc1Nc1cccc(C(F)(F)F)c1 [Flufenamic acid, reference compound]
inhibition in vivo at 5 mg/kg [1]: 6.8%
inhibition in vivo at 5 mg/kg [2]: 25.9%
inhibition in vivo at 5 mg/kg [3]: 26.2%
inhibition in vivo at 5 mg/kg [4]: 25.3%
inhibition in vivo at 5 mg/kg [5]: 16%
inhibition in vivo at 5 mg/kg [6]: 10.6%
inhibition in vivo at 10 mg/kg [7]: -2.9%
inhibition in vivo at 10 mg/kg [8]: 23.9%
inhibition in vivo at 10 mg/kg [9]: 26.8%
inhibition in vivo at 10 mg/kg [10]: 29.5%
inhibition in vivo at 10 mg/kg [11]: 23.8%
inhibition in vivo at 10 mg/kg [12]: 15.4%

CC(C(=O)O)c1cccc2c1Oc1ccccc1CC2=O (stereo not drawn) [Compound 18, 2-(10,11-dihydro-11-oxodibenzo[b,f]oxepin-4-yl)-propionic acid]
inhibition in vivo at 8 mg/kg [1]: 34.3%
inhibition in vivo at 8 mg/kg [2]: 36.4%
inhibition in vivo at 8 mg/kg [3]: 38.3%
inhibition in vivo at 8 mg/kg [4]: 36.1%
inhibition in vivo at 8 mg/kg [5]: 36.1%
inhibition in vivo at 8 mg/kg [6]: 35.1%

CC(C(=O)O)c1ccc2c(c1)CCc1ccccc1S2 (stereo not drawn) [Compound 4, 2-(10,11-dihydrodibenzo[b,f]thiepin-2-yl)-propionic acid]
inhibition in vivo at 10 mg/kg [7]: 47.2%
inhibition in vivo at 10 mg/kg [8]: 58.8%
inhibition in vivo at 10 mg/kg [9]: 54.6%
inhibition in vivo at 10 mg/kg [10]: 48.3%
inhibition in vivo at 10 mg/kg [11]: 41%
inhibition in vivo at 10 mg/kg [12]: 35%

CCOC(=O)C(C)c1ccc2c(c1)Sc1ccccc1CC2=O (stereo not drawn) [Compound 7, Ethyl 2-(10,11-dihydro-11-oxodibenzo[b,f]thiepin-3-yl)-propionate]
inhibition in vivo at 10 mg/kg [7]: 58.7%
inhibition in vivo at 10 mg/kg [8]: 39.6%
inhibition in vivo at 10 mg/kg [9]: 31.2%
inhibition in vivo at 10 mg/kg [10]: 25.9%
inhibition in vivo at 10 mg/kg [11]: 22.3%
inhibition in vivo at 10 mg/kg [12]: 18.8%

CCOC(=O)C(C)c1ccc2c(c1)CCc1ccccc1S2 (stereo not drawn) [Compound 5, Ethyl 2-(10,11-dihydrodibenzo[b,f]thiepin-2-yl)-propionate]
inhibition in vivo at 10 mg/kg [7]: 56.6%
inhibition in vivo at 10 mg/kg [8]: 68%
inhibition in vivo at 10 mg/kg [9]: 67.4%
inhibition in vivo at 10 mg/kg [10]: 52.2%
inhibition in vivo at 10 mg/kg [11]: 38.7%
inhibition in vivo at 10 mg/kg [12]: 29.3%

CC(C(=O)O)c1ccc2c(c1)CCc1cccnc1O2 (stereo not drawn) [Compound 27, 2-(5,6-dihydrobenzo[b]pyrido[3,2-f]oxepin-8yl)-propionic acid]
inhibition in vivo at 5 mg/kg [1]: 68%
inhibition in vivo at 5 mg/kg [2]: 83.5%
inhibition in vivo at 5 mg/kg [3]: 79%
inhibition in vivo at 5 mg/kg [4]: 81%
inhibition in vivo at 5 mg/kg [5]: 70.6%
inhibition in vivo at 5 mg/kg [6]: 61.5%

CCOC(=O)C(C)c1ccc2c(c1)Sc1ncccc1CC2 (stereo not drawn) [Compound 25, Ethyl 2-(5,6-dihydrobenzo[b]pyrido[3,2-f]thiepin-9-yl)-propionate]
inhibition in vivo at 10 mg/kg [7]: 42.8%
inhibition in vivo at 10 mg/kg [8]: 57.7%
inhibition in vivo at 10 mg/kg [9]: 61%
inhibition in vivo at 10 mg/kg [10]: 52.7%
inhibition in vivo at 10 mg/kg [11]: 33.4%
inhibition in vivo at 10 mg/kg [12]: 29.2%

CCOC(=O)C(C)c1ccc2c(c1)C(=O)Cc1ccccc1O2 (stereo not drawn) [Compound 11, Ethyl 2-(10,11-dihydro-11-oxodibenzo[b,f]oxepin-2-yl)-propionate]
inhibition in vivo at 10 mg/kg [7]: 21.2%
inhibition in vivo at 10 mg/kg [8]: 56.8%
inhibition in vivo at 10 mg/kg [9]: 64.9%
inhibition in vivo at 10 mg/kg [10]: 70%
inhibition in vivo at 10 mg/kg [11]: 62.8%
inhibition in vivo at 10 mg/kg [12]: 52.6%

CCOC(=O)C(C)c1ccc2c(c1)CCc1ccccc1O2 (stereo not drawn) [Compound 14, Ethyl 2-(10,11-dihydrodibenzo[b,f]oxepin-2-yl)-propionate]
inhibition in vivo at 10 mg/kg [7]: 48.6%
inhibition in vivo at 10 mg/kg [8]: 67.6%
inhibition in vivo at 10 mg/kg [9]: 60.3%
inhibition in vivo at 10 mg/kg [10]: 53.2%
inhibition in vivo at 10 mg/kg [11]: 35.8%
inhibition in vivo at 10 mg/kg [12]: 26%

CC(C(=O)O)c1ccc2c(c1)Sc1ncccc1CC2 (stereo not drawn) [Compound 24, 2-(5,6-dihydrobenzo[b]pyrido[3,2-f]thiepin-9yl)-propionic acid]
inhibition in vivo at 10 mg/kg [7]: 19.6%
inhibition in vivo at 10 mg/kg [8]: 52.1%
inhibition in vivo at 10 mg/kg [9]: 49.9%
inhibition in vivo at 10 mg/kg [10]: 38.3%
inhibition in vivo at 10 mg/kg [11]: 28.2%
inhibition in vivo at 10 mg/kg [12]: 27.2%

CC(C(N)=O)c1ccc2c(c1)CCc1cccnc1S2 (stereo not drawn) [Compound 23, 2-(5,6-dihydrobenzo[b]pyrido[3,2-f]thiepin-8-yl)-propionamide]
inhibition in vivo at 5 mg/kg [1]: 22.6%
inhibition in vivo at 5 mg/kg [2]: 53.8%
inhibition in vivo at 5 mg/kg [3]: 60.9%
inhibition in vivo at 5 mg/kg [4]: 64.1%
inhibition in vivo at 5 mg/kg [5]: 51.8%
inhibition in vivo at 5 mg/kg [6]: 37.5%

CC(C(=O)O)c1ccc2c(c1)CCc1cccnc1S2 (stereo not drawn) [Compound 21, 2-(5,6-dihydrobenzo[b]pyrido[3,2-f]thiepin-8-yl)-propionic acid]
inhibition in vivo at 10 mg/kg [7]: 69.5%
inhibition in vivo at 10 mg/kg [8]: 75.6%
inhibition in vivo at 10 mg/kg [9]: 69%
inhibition in vivo at 10 mg/kg [10]: 67%
inhibition in vivo at 10 mg/kg [11]: 70.3%
inhibition in vivo at 10 mg/kg [12]: 64.6%

CCOC(=O)C(C)c1ccc2c(c1)CCc1cccnc1S2 (stereo not drawn) [Compound 22, Ethyl 2-(5,6-dihydrobenzo[b]pyrido[3,2-f]thiepin-8-yl)-propionate]
inhibition in vivo at 10 mg/kg [7]: 29.6%
inhibition in vivo at 10 mg/kg [8]: 51.7%
inhibition in vivo at 10 mg/kg [9]: 59.1%
inhibition in vivo at 10 mg/kg [10]: 57%
inhibition in vivo at 10 mg/kg [11]: 45.9%
inhibition in vivo at 10 mg/kg [12]: 42.8%

CC(C(=O)O)c1ccc2c(c1)Sc1ccccc1CC2 (stereo not drawn) [Compound 9, 2-(10,11-dihydrodibenzo[b,f]thiepin-3-yl)-propionic acid]
inhibition in vivo at 10 mg/kg [7]: 52.1%
inhibition in vivo at 10 mg/kg [8]: 41%
inhibition in vivo at 10 mg/kg [9]: 27.5%
inhibition in vivo at 10 mg/kg [10]: 21.3%
inhibition in vivo at 10 mg/kg [11]: 16.6%
inhibition in vivo at 10 mg/kg [12]: 16.3%

CC(C(=O)O)c1ccc2c(c1)Oc1ccccc1CC2=O (stereo not drawn) [Compound 16, 2-(10,11-dihydro-11-oxodibenzo[b,f]oxepin-3-yl)-propionic acid]
inhibition in vivo at 10 mg/kg [7]: 53.6%
inhibition in vivo at 10 mg/kg [8]: 49.9%
inhibition in vivo at 10 mg/kg [9]: 50.7%
inhibition in vivo at 10 mg/kg [10]: 46.2%
inhibition in vivo at 10 mg/kg [11]: 37%
inhibition in vivo at 10 mg/kg [12]: 26.2%

CC(C(N)=O)c1cccc2c1Oc1ccccc1CC2=O (stereo not drawn) [Compound 17, 2-(10,11-dihydro-11-oxodibenzo[b,f]oxepin-4-yl)-propionamide]
inhibition in vivo at 10 mg/kg [7]: 65.9%
inhibition in vivo at 10 mg/kg [8]: 49.4%
inhibition in vivo at 10 mg/kg [9]: 35.4%
inhibition in vivo at 10 mg/kg [10]: 29%
inhibition in vivo at 10 mg/kg [11]: 17.2%
inhibition in vivo at 10 mg/kg [12]: 13%

CCOC(=O)C(C)c1ccc2c(c1)CCc1cccnc1O2 (stereo not drawn) [Compound 28]
inhibition in vivo at 5 mg/kg [1]: 11.7%
inhibition in vivo at 5 mg/kg [2]: 35.1%
inhibition in vivo at 5 mg/kg [3]: 50.9%
inhibition in vivo at 5 mg/kg [4]: 55.4%
inhibition in vivo at 5 mg/kg [5]: 47.1%
inhibition in vivo at 5 mg/kg [6]: 37.7%

CC(C(=O)O)c1ccc2c(c1)C(=O)Cc1cccnc1O2 (stereo not drawn) [Compound 26, 2-(5,6-dihydro-6-oxobenzo[b]pyrido[3,2-f]oxepin-8-yl)-propionic acid]
inhibition in vivo at 5 mg/kg [1]: 55.7%
inhibition in vivo at 5 mg/kg [2]: 52.6%
inhibition in vivo at 5 mg/kg [3]: 40%
inhibition in vivo at 5 mg/kg [4]: 32.2%
inhibition in vivo at 5 mg/kg [5]: 29.7%
inhibition in vivo at 5 mg/kg [6]: 24%

CC(C(=O)O)c1ccc2c(c1)CCc1ccccc1O2 (stereo not drawn) [Compound 13, 2-(10,11-dihydrodibenzo[b,f]oxepin-2-yl)-propionic acid]
inhibition in vivo at 10 mg/kg [7]: 42.4%
inhibition in vivo at 10 mg/kg [8]: 55.5%
inhibition in vivo at 10 mg/kg [9]: 65.4%
inhibition in vivo at 10 mg/kg [10]: 63.3%
inhibition in vivo at 10 mg/kg [11]: 49.1%
inhibition in vivo at 10 mg/kg [12]: 33.3%

CC(C(N)=O)c1ccc2c(c1)CCc1cccnc1O2 (stereo not drawn) [Compound 29, 2-(5,6-dihydrobenzo[b]pyrido[3,2-f]oxepin-8-yl)-propionamide]
inhibition in vivo at 5 mg/kg [1]: 18.1%
inhibition in vivo at 5 mg/kg [2]: 38.3%
inhibition in vivo at 5 mg/kg [3]: 53.5%
inhibition in vivo at 5 mg/kg [4]: 53.8%
inhibition in vivo at 5 mg/kg [5]: 46.2%
inhibition in vivo at 5 mg/kg [6]: 42.9%

CC(C(=O)O)c1ccc2c(c1)C(=O)Cc1ccccc1S2 (stereo not drawn) [Compound 2, 2-(10,11-dihydro-11-oxodibenzo[b,f]thiepin-2-yl)-propionic acid]
inhibition in vivo at 1 mg/kg [13]: 53.8%
inhibition in vivo at 10 mg/kg [13]: 55%
inhibition in vivo at 1 mg/kg [14]: 57.3%
inhibition in vivo at 10 mg/kg [14]: 76.3%
inhibition in vivo at 1 mg/kg [15]: 70.9%
inhibition in vivo at 10 mg/kg [15]: 78%
inhibition in vivo at 1 mg/kg [16]: 69.6%
inhibition in vivo at 10 mg/kg [16]: 78.5%
inhibition in vivo at 1 mg/kg [17]: 68.7%
inhibition in vivo at 10 mg/kg [17]: 74.8%
inhibition in vivo at 1 mg/kg [18]: 65.6%
inhibition in vivo at 10 mg/kg [18]: 70%

From patent US4205170A, “Propionic acid derivatives” (priority 1976, dated 1980)
